From a melting point compilation (Tetko et al.; mined from patent text by program, amines drawn as free bases though some values may be those of a salt)

Row | SMILES | melting point [°C]
1 | CCCCCCCCCCCCCCCCCC(O)C[N+](=O)[O-] (stereo not given) | 55 to 56
2 | CC(C)(C)[Si](C)(C)O[C@H](/C=C/[C@@H]1[C@H]2CC(=O)O[C@H]2C[C@H]1O[Si](C)(C)C(C)(C)C)COc1cccc(C(F)(F)F)c1 | 91 to 93
3 | Nc1cc(Cl)c([N+](=O)[O-])cc1OC(=O)c1cccc(C(=O)Oc2cc([N+](=O)[O-])c(Cl)cc2N)c1 | 129 to 130
4 | CCOC(=O)C(C(=O)OCC)n1cccc1C(=O)C(Cl)(Cl)Cl | 67 to 69
5 | COc1ccc(CCNC(=O)CNc2ccc(C)cc2)cc1OC | 87 to 88.5
6 | CCCCc1nc2c(N)nc3ccccc3c2n1CCCC(=NO)c1ccccc1 | 242 to 244
7 | COc1cc(C(=O)NN2CCN(C)CC2)ccc1Nc1ncc2c(n1)N(C1CCCC1)CC(F)(F)C(=O)N2C | 168 to 174
8 | CC(C)(C)NCC(O)COc1ccc(F)cc1-c1ccc(=S)[nH]n1 (stereo not given) | 170 to 173
9 | C=CCOC(=O)c1ccc(OC(=O)c2ccc(OC)c(C34CC5CC(CC(C5)C3)C4)c2)c(C(C)(C)C)c1 | 113 to 115
10 | CCC(=Nc1ccc2nc(N3CCN(C)CC3)c(N3CCN(C)CC3)nc2c1)N(C)C | 173 to 175
11 | Cc1c(N2CC[C@@H](O)[C@H](C)C2)c(F)cc2c(=O)c(C(=O)O)cn(C3CC3)c12 (relative stereo) | 206 to 210
12 | C#CCCn1ncc2c(N)c(C(=O)OCC=C)c(C)nc21 | 115 to 116
13 | COc1ccc2[nH]c3c(c2c1)CCN(C(C)=O)C3C (stereo not given) | 198 to 200
14 | CN1CC2c3ccccc3Cc3ncccc3N2C1 (stereo not given) | 127 to 129
15 | Cc1ccc2[nH]c3c(c2c1)CC(C)CC3 (stereo not given) | 112
16 | O=C1CCCC(=O)N1c1cc(I)cc(I)c1 | 177 to 178
17 | Cc1ccc(N2C(=O)C(O)=C(C(=O)c3ccc(C(C)C)cc3)C2c2ccc(-n3cncn3)cc2)nn1 (stereo not given) | 284
18 | CCOC(=O)c1cn(C2CC2)c2c(F)c(N3CCN(C)CC3)c(F)c([Si](C)(C)C)c2c1=O | 231 to 233
19 | COc1cccc(-c2noc3ccsc23)c1 | 51 to 52
20 | COc1ccc(-n2nc(Sc3ccc([N+](=O)[O-])cc3)c(C)c(C#N)c2=O)cc1 | 258 to 260
21 | OCCCN1CCN(C2=Nc3ccccc3Cn3c2cc2ccccc23)CC1 | 174 to 175
22 | NC(=O)N1CCC(Br)C1=O (stereo not given) | 128 to 129
23 | Nc1ccc2c(c1)C(NC(=O)C(F)(F)F)CC2 (stereo not given) | 133 to 134
24 | Cc1nn(C(=O)NC(C)C)c(=O)n1C | 81
25 | CCCn1cc(-c2c(-c3ccc(F)cc3)nn3ccncc23)ccc1=O | 183 to 184

Row | SMILES | melting point [°C]
26 | Cc1cc(Oc2ccc(S(C)(=O)=O)nc2)cc2cc(C3=NCC(CC(=O)N4CCS(=O)CC4)S3)[nH]c12 (stereo not given) | 157 to 160
27 | O=[N+]([O-])c1ccccc1Nc1ccccc1F | 58 to 59
28 | CC(C)Cn1c(=O)n(C)c(=O)c2c(SCCCO)n(Cc3ccccc3CS(=O)(=O)c3ccccc3)nc21 | 50
29 | CC(C)(C)C(=O)Nc1nc(CN2CCC(c3c[nH]c4ccccc34)CC2)cs1 | 93 to 96
30 | Cc1cnc2cc(N)ccc2n1 | 163 to 164
31 | CC(Oc1ccc(Oc2ncc(Cl)cc2F)cc1)C(=O)Nc1ccc(OC(F)(F)F)cc1 (stereo not given) | 92 to 93.5
32 | CCCCC(=N)NC(=O)Nc1cccc(C(F)(F)F)c1 | 167 to 169
33 | C=CCc1c(Cl)cc2c(c1O)CCC2 | 37 to 39
34 | CC(C)(C)c1ccc(P2Oc3ccccc3-c3ccccc32)cc1 (stereo not given) | 90 to 92
35 | Cc1cc(S(N)(=O)=O)ccc1NC(=O)Cc1ccc(Oc2cc(Cl)cc(C#N)c2)c(Br)c1 | 215 to 216
36 | CCC(CC)Nc1c(NCc2ccc(Cl)c(Cl)c2)c(=O)c1=O | 268 to 269
37 | CCCCCCCCCCCCOCC(C=CC(=O)N(C)C)(C=CC(=O)N(C)C)COCCCCCCCCCCCC | 52 to 54
38 | O=C1C=C(c2c(-c3ccccc3)nn3ccccc23)CCN1 | 188 to 189
39 | CC1(C)CC(=O)N(CCCCN2CCN(c3nsc4ccccc34)CC2)C(=O)C1 | 146 to 147
40 | CC(NC(=O)C(Cc1ccc(OCc2ccccc2)cc1)NC(=O)OC(C)(C)C)C(=O)O (stereo not given) | 160 to 162
41 | COc1cc(NC(=O)OC(C)(C)C)c([N+](=O)[O-])cc1-c1ccc(F)cc1 | 250
42 | CC(=O)NCCCCCC1CCSS1 (stereo not given) | 28 to 33
43 | O=C(CCCC(=O)C(F)(F)F)c1ccc(-c2cccc3ccccc23)cc1 | 79.7 to 82.5
44 | COC(=O)c1ccccc1NS(=O)(=O)c1ccc(C(=O)NCCc2ccccc2)cc1 | 167 to 168
45 | O=C(O)c1cc(Br)c(O)c(Br)n1 | 195 to 197
46 | O=C(O)CCCCNS(=O)(=O)c1ccc(N2CCCCCC2)cc1 | 135 to 140
47 | O=C1CCCc2ccc(OCCCCN3CCN(c4cccc5c4OCCCO5)CC3)nc2N1 | 200 to 201
48 | CC(C)c1nc(N(C)S(C)(=O)=O)nc(-c2ccc(F)cc2)c1Br | 122 to 125
49 | COc1ccc(CCNC(=O)OC(C)(C)C)cc1OC | 63 to 67
50 | Fc1cccc2nc(S)sc12 | 193

Row | SMILES | melting point [°C]
51 | CCCCc1c2c(nn1CCCC)c(N)nc1ccccc12 | 143 to 145
52 | CC(=O)OCC(=O)C1(OC(=O)CC(C)C)CCC2C3CC(C)C4=CC(=O)C=CC4(C)C3C(O)CC21C (stereo not given) | 172
53 | CCc1cc(=O)c(C(=O)OC)c(C)[nH]1 | 176 to 180
54 | CC(O)(C=Cc1ccc(S(=O)(=O)c2ccncc2)cc1)C(F)(F)F (stereo not given) | 168 to 171
55 | O=C(NCCCCC1CCSS1)n1cc(F)c(=O)[nH]c1=O (stereo not given) | 126
56 | COC(=O)C(=O)N1C(=O)[C@@H](NC(=O)OC(C)(C)C)[C@@H]1OC(C)=O | 144 to 146
57 | O=C(Nc1c(C(O)(C(F)(F)F)C(F)(F)F)ccc2ccccc12)c1ccc(C(F)(F)F)cc1 | 191 to 192
58 | COc1cc2ncc(C#N)c(Nc3cccc(C(=O)O)c3C)c2cc1OC | 242 to 245
59 | COc1cc(COc2cccc(O)c2C)cc(OC)c1 | 63 to 69
60 | O=C(CCCN1CCNC1=O)N1CCC(C2c3ncc(Br)cc3CCc3cc(Cl)cc(Br)c32)CC1 (single isomer, unassigned; (+)) | 120 to 123
61 | CC(C)(O)c1cnn2c(-c3ccc(F)c(-c4ccncc4)c3)cnc2n1 | 233 to 237
62 | CCC(C)N(C(=O)c1ccccc1C(N)=O)c1ccc(Cn2nnn(-c3ccc(C(F)(F)F)cc3)c2=O)cc1C (stereo not given) | 217 to 218
63 | CCN(CC)CCNc1ccc(-c2ccnc(Nc3cc(OC)c(OC)c(OC)c3)n2)cn1 | 67
64 | O=C(O)Cc1cccc(OCc2ccc3ccccc3n2)c1 | 128 to 130
65 | C=CCN(CC)c1ccc2[nH]c3cnc(C(=O)OCC)cc3c2c1 | 190 to 192
66 | O=[N+]([O-])c1cnc2ccc(SC(F)F)cc2c1-c1ccccc1 | 101 to 103
67 | O=C1NCCNN1c1ccc(Cc2ccc(Cl)cc2)c(Cl)c1 | 157 to 158
68 | CC=CCOc1ccc(C(=O)C=Cc2cccc(OC)c2)c(O)c1 | 97 to 100
69 | COC(=O)Cc1cc(Cl)ccc1O | 84 to 85
70 | CC(=O)OCC(C)(COC(C)=O)C(=O)O | 85
71 | CCOC(=O)c1c[nH]c(=S)n1C1CCc2c(F)cc(F)cc2C1 (stereo not given) | 159 to 161
72 | CN(Cc1ccc(NC(=O)C2=Cc3cc(-c4ccc(O)cc4)ccc3S(=O)(=O)CC2)cc1)C1CCOCC1 | 232 to 234
73 | CCCCOc1ccc(C(=O)c2ccc(OCCBr)cc2)cc1 | 107 to 108
74 | CCC(CC)c1ccc(Cl)c2nc3n(c12)CCCCN3c1ccc(N(C)C)cc1OC(F)(F)F | 158 to 159
75 | C=C1OC(c2ccc(Cl)cc2)=NC1(C)CC (stereo not given) | 55 to 57

Row | SMILES | melting point [°C]
76 | O=C1CCc2c(-c3ccncc3)sc(-c3ccccc3F)c21 | 133 to 135
77 | CC(=O)N(CCN1CCC(Nc2nc3ccccc3n2Cc2ccc(F)cc2)CC1)c1nccs1 | 186 to 193
78 | CCc1cccc(Nc2nc(OCC3CCCCC3)c3[nH]cnc3n2)c1 | 180 to 183
79 | CSc1nccc(-c2cc(C)ccc2NC(=O)C(C)C)n1 | 134 to 135
80 | COCCOc1nc(N)nc(-c2ccccc2)c1-c1ccc(=O)n(C(C)C)n1 | 128 to 130
81 | CCCNC(=O)C1(O)CC(O)C(O)C(O)C1 (stereo not given) | 132 to 133
82 | CN(CCSCc1nc[nH]c1CSCCN(C)C(N)=S)C(N)=S | 154 to 155
83 | CC(C)C[C@H](NC(=O)O[C@H]1CCOC1)C(=O)O | 94.9 to 96
84 | CC(=O)OCC1OC(n2c(Br)c(C=O)c3cc(Cl)c(Cl)cc32)C(O)C1O (stereo not given) | 159 to 160
85 | CN(C)C(=O)C1Cc2cc(Cl)ccc2NC1=O (stereo not given) | 302 to 305
86 | O=C(Cc1ccc2nc(CCCOc3cccc(CN4CCCC4)c3)[nH]c2c1)N1CCCC1 | 68
87 | CC1(C)CC(=O)c2c(Sc3ncccn3)sc(-c3cc[nH]n3)c2C1 | 245
88 | CC(=O)Nc1cccc2c1C(=O)OC2(C)C | 124
89 | Cc1cc(CC(=O)c2ccccc2)on1 | 73 to 74
90 | COC(=O)c1cnccc1SCc1ccc(OC)cc1 | 108 to 110
91 | COc1ccc(C=C(c2ccc(OCc3ccccc3)cc2)N(C)C)cc1 | 60
92 | O=C(NCC12CC3CC(CC(C3)C1)C2)c1c(Cl)ccc2nc(N3CCC[C@H](NCCc4nn[nH]n4)C3)ccc12 | 168 to 172
93 | CN(NC(=O)OC(C)(C)C)C(=O)C(C)(C)ON1C(=O)c2ccccc2C1=O | 140 to 145
94 | O=C1Nc2ccc(O)cc2Sc2ccccc21 | 265 to 267
95 | O=C(Nc1ccc(S(=O)(=O)c2ccccc2)cc1)C(O)(C(F)F)C(F)F | 105 to 108
96 | Cc1nn(C)c2c1N(C(=O)CN1CCCCC1)c1ccccc1NC2=O | 156 to 158
97 | CNc1noc(C)c1Cl | 43 to 47
98 | CCSc1ccc(/C=C(\NC(=O)c2ccc(OCC(C)C)cc2)C(=O)NCCO)cc1 | 153 to 155
99 | COc1ccc(-c2ccccc2[N+](=O)[O-])cc1 | 55 to 56
100 | N#Cc1ccc(NC(=O)c2cccc(OCc3ccc(F)cc3)c2)nc1 | 170 to 171
